Read-outs that look alike come from different tables or passages of the source.
Experiments:
[1] = target: CRBN (Homo sapiens (Human), UniProt Q96SW2); experiment: HTRF binding of compounds to CRBN; conditions: read-out: HTRF Class (HTRF IC50, Cereblon binding)
[2] = target: GSPT1 (Homo sapiens (Human), UniProt P15170+Q96SW2); experiment: Immunofluorescence assay for GSPT1 degradation in CAL-Si cells; type: cell-based
Method in brief: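 CAL-Si cells on fibronectin were treated for 6 h with serial dilutions (30 μM to 0.1 nM). After fixation, GSPT1 was immunostained and imaged by high-content analysis, with DAPI/actin cell segmentation giving mean GSPT1 intensity per cell. DC50 came from nonlinear regression after normalization to controls.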

[3] = target: Full length wild-type cereblon CRBN (Homo sapiens (Human), UniProt Q96SW2); experiment: Fluorescence polarization (FP) assay, cereblon binding
Method in brief: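 Full-length wild-type CRBN (80.0 nM) preincubated 30 min RT with compound (300–0.937 or 3000–9.3 nM, 12 points) in 20 mM HEPES pH 8.0, 150 NaCl, 0.5 mM TCEP, 0.05% Tween 20. Probe added at 5 nM final; FP read after 12 h (ex 590/em 675 nm), normalized to DMSO for IC50.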

[4] = Table 4, read-out: IF Class (ability for GSPT1 degradation)
[5] = CAL-Si cells, compounds with code A, read-out: DC50 value code
[6] = CAL-Si cells, treated 6 hours, read-out: Code, activity for GSPT1 degradation (DC50)
[7] = wild-type CRBN 80.0 nM, probe 5 nM, FP measured after 12 hours, read-out: rFP IC50

Chain of CRBN (Q96SW2 whole entry, species assumed): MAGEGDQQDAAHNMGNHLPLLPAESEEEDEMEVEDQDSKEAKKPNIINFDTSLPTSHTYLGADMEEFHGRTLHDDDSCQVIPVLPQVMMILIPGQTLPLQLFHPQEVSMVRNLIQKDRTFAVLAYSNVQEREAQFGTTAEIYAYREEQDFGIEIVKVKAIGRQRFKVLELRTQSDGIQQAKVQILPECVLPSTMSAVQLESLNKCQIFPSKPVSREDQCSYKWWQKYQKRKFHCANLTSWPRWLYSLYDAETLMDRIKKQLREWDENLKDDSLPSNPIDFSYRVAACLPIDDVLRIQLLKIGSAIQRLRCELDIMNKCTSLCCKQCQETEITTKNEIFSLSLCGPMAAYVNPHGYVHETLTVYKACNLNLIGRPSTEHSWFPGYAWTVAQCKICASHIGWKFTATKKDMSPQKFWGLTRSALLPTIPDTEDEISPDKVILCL
Chain of Full length wild-type cereblon CRBN (Q96SW2 whole entry): as the sequence (Q96SW2 whole entry, species assumed) above
Chain of GSPT1 (P15170 whole entry): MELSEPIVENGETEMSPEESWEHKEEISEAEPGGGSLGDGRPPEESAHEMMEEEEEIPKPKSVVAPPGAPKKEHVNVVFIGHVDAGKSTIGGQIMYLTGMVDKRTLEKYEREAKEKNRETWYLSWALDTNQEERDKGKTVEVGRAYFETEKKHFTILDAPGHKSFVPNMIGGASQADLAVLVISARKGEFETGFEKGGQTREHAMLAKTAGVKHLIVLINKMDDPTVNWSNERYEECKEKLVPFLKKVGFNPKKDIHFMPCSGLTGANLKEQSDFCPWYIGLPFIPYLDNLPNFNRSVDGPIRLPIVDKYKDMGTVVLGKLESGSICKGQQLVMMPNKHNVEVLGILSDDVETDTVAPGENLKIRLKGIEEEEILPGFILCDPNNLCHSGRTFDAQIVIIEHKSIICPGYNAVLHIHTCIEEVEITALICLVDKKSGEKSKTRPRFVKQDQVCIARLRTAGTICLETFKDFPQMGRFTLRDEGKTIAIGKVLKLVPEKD
Chain of GSPT1 (Q96SW2 whole entry): as the sequence (Q96SW2 whole entry, species assumed) above
Chain of GSPT1 (Q16531 whole entry partner): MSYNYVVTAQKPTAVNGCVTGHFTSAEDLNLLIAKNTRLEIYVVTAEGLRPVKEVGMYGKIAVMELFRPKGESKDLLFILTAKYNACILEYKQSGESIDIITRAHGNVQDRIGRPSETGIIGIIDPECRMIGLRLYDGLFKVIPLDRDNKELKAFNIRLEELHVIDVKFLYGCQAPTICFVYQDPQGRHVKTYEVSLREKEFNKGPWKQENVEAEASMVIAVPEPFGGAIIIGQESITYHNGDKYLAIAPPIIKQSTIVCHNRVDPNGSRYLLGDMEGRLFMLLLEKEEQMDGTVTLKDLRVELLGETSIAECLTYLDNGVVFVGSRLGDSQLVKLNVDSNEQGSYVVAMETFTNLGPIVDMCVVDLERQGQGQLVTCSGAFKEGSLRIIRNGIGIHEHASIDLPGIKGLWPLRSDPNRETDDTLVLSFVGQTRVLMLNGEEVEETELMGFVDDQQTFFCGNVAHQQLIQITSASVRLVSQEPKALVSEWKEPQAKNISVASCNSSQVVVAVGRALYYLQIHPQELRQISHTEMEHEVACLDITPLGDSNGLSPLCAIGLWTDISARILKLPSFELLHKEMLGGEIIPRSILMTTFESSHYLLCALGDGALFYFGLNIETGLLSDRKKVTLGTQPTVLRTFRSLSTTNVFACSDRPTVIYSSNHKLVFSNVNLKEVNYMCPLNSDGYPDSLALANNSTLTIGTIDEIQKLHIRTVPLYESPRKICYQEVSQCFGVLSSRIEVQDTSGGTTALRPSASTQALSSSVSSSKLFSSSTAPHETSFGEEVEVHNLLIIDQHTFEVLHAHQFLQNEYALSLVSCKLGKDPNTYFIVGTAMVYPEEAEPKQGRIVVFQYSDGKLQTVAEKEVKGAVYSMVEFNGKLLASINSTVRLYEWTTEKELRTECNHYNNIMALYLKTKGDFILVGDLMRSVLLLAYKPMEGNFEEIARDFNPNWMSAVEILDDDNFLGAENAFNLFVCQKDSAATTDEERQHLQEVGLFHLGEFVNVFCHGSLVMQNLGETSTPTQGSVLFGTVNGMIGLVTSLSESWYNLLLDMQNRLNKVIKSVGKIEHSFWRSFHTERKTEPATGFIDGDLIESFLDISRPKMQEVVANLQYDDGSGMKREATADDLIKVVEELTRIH

| IC50 [1] [nM] | DC50 [2, 4] [nM] | IC50 ([3]; cereblon binding, bound, read-out: IC50 value) [nM] | SMILES | DC50 [2, 5] [nM] | DC50 [2, 6] [nM] | IC50 [3, 7] [nM] |
| --- | --- | --- | --- | --- | --- | --- |
| 100 to 1000 | < 30 |  | CC1(c2ccc(NC(=O)OCc3cc(F)c4c(c3)C(=O)N(C3CCC(=O)NC3=O)C4)cn2)CC1 (stereo not drawn) [Compound 75, (2-(2,6-dioxopiperidin-3-yl)-7-fluoro-3-oxoisoindolin-5-yl)methyl(6-(1-methylcyclopropyl)pyridin-3-yl)carbamate] |  |  |  |
| > 1000 | > 300 |  | Cc1ccc(NC(=O)OCc2ccc3c(c2Cl)C(=O)N(C2CCC(=O)NC2=O)C3)cc1Cl (stereo not drawn) [Compound 72, (4-chloro-2-(2,6-dioxopiperidin-3-yl)-3-oxoisoindolin-5-yl)methyl(3-chloro-4-methylphenyl) carbamate] |  |  |  |
|  |  | < 600 | O=C1CCC(N2Cc3c(F)cc(COC(=O)Nc4ccc(-c5ccccc5F)nc4)cc3C2=O)C(=O)N1 (stereo not drawn) [Compound 18, (2-(2,6-dioxopiperidin-3-yl)-7-fluoro-3-oxoisoindolin-5-yl)methyl(6-(2-fluorophenyl)pyridin-3-yl)carbamate] | < 30 | < 30 | 1200 to 1900 |

| SMILES | IC50 [1] [nM] | DC50 [2, 4] [nM] | IC50 ([3]; cereblon binding, bound, read-out: IC50 value) [nM] | DC50 [2, 5] [nM] | DC50 [2, 6] [nM] | IC50 [3, 7] [nM] |
| --- | --- | --- | --- | --- | --- | --- |
| Cc1ccc(NC(=O)OCc2ccc3c(c2F)C(=O)N(C2CCC(=O)NC2=O)C3)cc1Cl (stereo not drawn) [Compound 71, (2-(2,6-dioxopiperidin-3-yl)-4-fluoro-3-oxoisoindolin-5-yl)methyl(3-chloro-4-methylphenyl)carbamate] | 100 to 1000 |  |  | < 30 | < 30 | > 1900 |

Reference: patent US20240051936A1, “ISOINDOLINONE COMPOUNDS” (Monte Rosa Therapeutics, Inc., priority 2021, published 2024)
